Results: patent US20060069132A1, “Azolecarboxamide herbicides” (priority 2004, published 2006)
Like-named read-outs stand apart in the source and are kept apart here.

Assays:
[1] = tested on: barnyardgrass; assay: Test B pre-/postemergence herbicide test; format: in vivo, Echinochloa crus-galli; settings: Echinochloa crus-galli; for pest or weed control at 125 g/ha: 125 g ai/ha; for pest or weed control at 500 g/ha: 500 g ai/ha
Outline: (§1)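 Herbicidal effect was judged by eye on a 0–100 scale after plants stood 13 to 15 days in the greenhouse following pre- or postemergence treatment with surfactant-containing formulations.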

[2] = tested on: Surinam grass; assay: Test B pre-/postemergence herbicide test; format: in vivo, Urochloa decumbens; settings: Urochloa decumbens; for pest or weed control at 125 g/ha: 125 g ai/ha; for pest or weed control at 500 g/ha: 500 g ai/ha
Outline: (§2)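 Pre: seeds sown, then sprayed. Post: 1–4-leaf plants (2–18 cm) sprayed at the same time. Paddy: flooded, treated at 2-leaf stage. Formulation: non-phytotoxic solvent with surfactant. Greenhouse 13–15 days; visual 0–100 score relative to controls.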

[3] = tested on: cocklebur; assay: Test B pre-/postemergence herbicide test; format: in vivo, Xanthium strumarium; settings: Xanthium strumarium; for pest or weed control at 125 g/ha: 125 g ai/ha; for pest or weed control at 500 g/ha: 500 g ai/ha
Outline: as §1

[4] = tested on: large crabgrass; assay: Test B pre-/postemergence herbicide test; format: in vivo, Digitaria sanguinalis; settings: Digitaria sanguinalis; for pest or weed control at 125 g/ha: 125 g ai/ha; for pest or weed control at 500 g/ha: 500 g ai/ha
Outline: as §2

[5] = tested on: giant foxtail; assay: Test B pre-/postemergence herbicide test; format: in vivo, Setaria faberi; settings: Setaria faberi, 336 h; for pest or weed control at 125 g/ha: 125 g ai/ha; for pest or weed control at 500 g/ha: 500 g ai/ha
Outline: as §2

[6] = tested on: lambsquarters; assay: Test B pre-/postemergence herbicide test; format: in vivo, Chenopodium album; settings: Chenopodium album, 336 h; for pest or weed control at 125 g/ha: 125 g ai/ha; for pest or weed control at 500 g/ha: 500 g ai/ha
Outline: as §2

[7] = tested on: morningglory; assay: Test B pre-/postemergence herbicide test; format: in vivo, Ipomoea coccinea; settings: Ipomoea, 336 h; for pest or weed control at 125 g/ha: 125 g ai/ha; for pest or weed control at 500 g/ha: 500 g ai/ha
Outline: as §1

[8] = tested on: pigweed; assay: Test B pre-/postemergence herbicide test; format: in vivo, Amaranthus retroflexus; settings: Amaranthus retroflexus, 336 h; for pest or weed control at 125 g/ha: 125 g ai/ha; for pest or weed control at 500 g/ha: 500 g ai/ha
Outline: as §2

[9] = tested on: velvetleaf; assay: Test B pre-/postemergence herbicide test; format: in vivo, Abutilon theophrasti; settings: Abutilon theophrasti, 336 h; for pest or weed control at 125 g/ha: 125 g ai/ha; for pest or weed control at 500 g/ha: 500 g ai/ha
Outline: as §2

[10] = tested on: blackgrass; assay: Test B postemergence herbicide test; format: in vivo, Alopecurus myosuroides; settings: Alopecurus myosuroides, post-emergence, 336 h, postemergence, visual rating, scale 0 (no effect) to 100 (complete control), read-out: Blackgrass plant response rating
Outline: (§3)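 Treated at 2-leaf (paddy) or 1–4-leaf, 2–18 cm (postemergence); greenhouse 13–15 d; visual score vs control, 0 none to 100 complete control; dash = not tested.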

[11] = tested on: wheat; assay: Test B postemergence herbicide test; format: in vivo, Triticum aestivum; settings: Triticum aestivum, post-emergence, 336 h, postemergence, 500 g ai/ha; visual rating, scale 0 (no effect) to 100 (complete control); read-out: Wheat plant response rating
Outline: (§4)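 After treating 2-leaf paddy plants or 2–18 cm postemergence plants (1 to 4 leaves) with formulated chemical, researchers kept them in a greenhouse for 13–15 days. Effects were judged visually versus controls: 0 indicates none, 100 total control.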

[12] = tested on: wild oat; assay: Test B postemergence herbicide test; format: in vivo, Avena fatua; settings: Avena fatua, post-emergence, 336 h, postemergence, visual rating, scale 0 (no effect) to 100 (complete control), read-out: Oat, Wild plant response rating
Outline: as §4

[13] = tested on: rice; assay: Test B flooded paddy test; format: in vivo, Oryza sativa; settings: Oryza sativa, 336 h, 1000 g ai/ha, visual rating, scale 0 to 100 (0 no effect, 100 complete control), 13 to 15 days, read-out: Rice plant response rating
Outline: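 Plants grow to 1- to 4-leaf stage (2–18 cm) for postemergence spraying, or to 2-leaf stage for the paddy test. Formulated compound is applied. Greenhouse holding lasts 13–15 days. Response is scored visually relative to controls, 0 no effect to 100 complete control; a dash means no result.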

[14] = tested on: small flower umbrella sedge; assay: Test B flooded paddy test; format: in vivo, Cyperus difformis; settings: Cyperus difformis, 336 h, 1000 g ai/ha, visual rating, scale 0 to 100 (0 no effect, 100 complete control), 13 to 15 days, read-out: Sedge, Umbrella plant response rating
Outline: as §3

[15] = tested on: barnyardgrass; assay: Test B flooded paddy test; format: in vivo, Echinochloa crus-galli; settings: Echinochloa crus-galli, 336 h, 1000 g ai/ha, visual rating, scale 0 to 100 (0 no effect, 100 complete control), 13 to 15 days, read-out: Barnyardgrass plant response rating
Outline: as §3

[16] = post-emergence, postemergence, visual rating, scale 0 (no effect) to 100 (complete control), read-out: Barnyardgrass plant response rating
[17] = post-emergence, postemergence, visual rating, scale 0 (no effect) to 100 (complete control), read-out: Surinam Grass plant response rating
[18] = post-emergence, postemergence, visual rating, scale 0 (no effect) to 100 (complete control), read-out: Cocklebur plant response rating
[19] = post-emergence, postemergence, visual rating, scale 0 (no effect) to 100 (complete control), read-out: Crabgrass, Large plant response rating
[20] = post-emergence, postemergence, visual rating, scale 0 (no effect) to 100 (complete control), read-out: Foxtail, Giant plant response rating
[21] = post-emergence, postemergence, visual rating, scale 0 (no effect) to 100 (complete control), read-out: Lambsquarters plant response rating
[22] = post-emergence, postemergence, visual rating, scale 0 (no effect) to 100 (complete control), read-out: Morningglory plant response rating
[23] = post-emergence, postemergence, visual rating, scale 0 (no effect) to 100 (complete control), read-out: Pigweed plant response rating
[24] = post-emergence, postemergence, visual rating, scale 0 (no effect) to 100 (complete control), read-out: Velvetleaf plant response rating

CCn1nc(C(C)(C)C)cc1C(=O)Nc1cc(C(=O)N(C)C)ccn1 [Compound 156, 2-[[[3-(1,1-dimethylethyl)-1-ethyl-1H-pyrazol-5-yl]carbonyl]amino]-N,N-dimethyl-4-pyridinecarboxamide]
pest or weed control at 125 g/ha [1, 16]: 10% | pest or weed control at 500 g/ha [1, 16]: 40% | pest or weed control at 500 g/ha ([1]; pre-emergence, visual rating 0-100, 0 no effect, 100 complete control, read-out: Plant response rating, Barnyardgrass): 100% | pest or weed control at 125 g/ha ([1]; pre-emergence, preemergence, 0 to 100 scale, 0 is no effect, 100 is complete control, read-out: Plant response rating, Barnyardgrass): 100% | pest or weed control at 125 g/ha [2, 17]: 10% | pest or weed control at 500 g/ha [2, 17]: 20% | pest or weed control at 500 g/ha ([2]; pre-emergence, visual rating 0-100, 0 no effect, 100 complete control, read-out: Plant response rating, Surinam Grass): 100% | pest or weed control at 125 g/ha ([2]; pre-emergence, preemergence, 0 to 100 scale, 0 is no effect, 100 is complete control, read-out: Plant response rating, Surinam Grass): 90% | pest or weed control at 125 g/ha [3, 18]: 40% | pest or weed control at 500 g/ha [3, 18]: 80% | pest or weed control at 500 g/ha ([3]; pre-emergence, visual rating 0-100, 0 no effect, 100 complete control, read-out: Plant response rating, Cocklebur): 100% | pest or weed control at 125 g/ha ([3]; pre-emergence, preemergence, 0 to 100 scale, 0 is no effect, 100 is complete control, read-out: Plant response rating, Cocklebur): 100% | pest or weed control at 125 g/ha [4, 19]: 10% | pest or weed control at 500 g/ha [4, 19]: 10% | pest or weed control at 500 g/ha ([4]; pre-emergence, visual rating 0-100, 0 no effect, 100 complete control, read-out: Plant response rating, Crabgrass, Large): 100% | pest or weed control at 125 g/ha ([4]; pre-emergence, preemergence, 0 to 100 scale, 0 is no effect, 100 is complete control, read-out: Plant response rating, Crabgrass, Large): 90% | pest or weed control at 125 g/ha [5, 20]: 20% | pest or weed control at 500 g/ha [5, 20]: 40% | pest or weed control at 500 g/ha ([5]; pre-emergence, visual rating 0-100, 0 no effect, 100 complete control, read-out: Plant response rating, Foxtail, Giant): 100% | pest or weed control at 125 g/ha ([5]; pre-emergence, preemergence, 0 to 100 scale, 0 is no effect, 100 is complete control, read-out: Plant response rating, Foxtail, Giant): 100% | pest or weed control at 125 g/ha [6, 21]: 60% | pest or weed control at 500 g/ha [6, 21]: 80% | pest or weed control at 500 g/ha ([6]; pre-emergence, visual rating 0-100, 0 no effect, 100 complete control, read-out: Plant response rating, Lambsquarters): 100% | pest or weed control at 125 g/ha ([6]; pre-emergence, preemergence, 0 to 100 scale, 0 is no effect, 100 is complete control, read-out: Plant response rating, Lambsquarters): 100% | pest or weed control at 125 g/ha [7, 22]: 20% | pest or weed control at 500 g/ha [7, 22]: 50% | pest or weed control at 500 g/ha ([7]; pre-emergence, visual rating 0-100, 0 no effect, 100 complete control, read-out: Plant response rating, Morningglory): 100% | pest or weed control at 125 g/ha ([7]; pre-emergence, preemergence, 0 to 100 scale, 0 is no effect, 100 is complete control, read-out: Plant response rating, Morningglory): 60% | pest or weed control at 125 g/ha [8, 23]: 30% | pest or weed control at 500 g/ha [8, 23]: 60% | pest or weed control at 500 g/ha ([8]; pre-emergence, visual rating 0-100, 0 no effect, 100 complete control, read-out: Plant response rating, Pigweed): 100% | pest or weed control at 125 g/ha ([8]; pre-emergence, preemergence, 0 to 100 scale, 0 is no effect, 100 is complete control, read-out: Plant response rating, Pigweed): 100% | pest or weed control at 125 g/ha [9, 24]: 60% | pest or weed control at 500 g/ha [9, 24]: 90% | pest or weed control at 500 g/ha ([9]; pre-emergence, visual rating 0-100, 0 no effect, 100 complete control, read-out: Plant response rating, Velvetleaf): 100% | pest or weed control at 125 g/ha ([9]; pre-emergence, preemergence, 0 to 100 scale, 0 is no effect, 100 is complete control, read-out: Plant response rating, Velvetleaf): 100% | pest or weed control at 125 g/ha ([10]; 125 g ai/ha): 30% | pest or weed control at 500 g/ha ([10]; 500 g ai/ha): 60% | plant injury at 500 g/ha [11]: 20% | pest or weed control at 125 g/ha ([12]; 125 g ai/ha): 40% | pest or weed control at 500 g/ha ([12]; 500 g ai/ha): 40% | plant injury at 1000 g/ha [13]: 90% | pest or weed control at 1000 g/ha [14]: 90% | pest or weed control at 1000 g/ha [15]: 100%
